From BigSolDB 2.1

solubility (mole fraction) (in acetonitrile, 283.1 K)	solubility (mole fraction) (in acetonitrile, 293.1 K)	solubility (mole fraction) (in acetonitrile, 303.1 K)	solubility (mole fraction) (in acetonitrile, 313.1 K)	solubility (mole fraction) (in acetonitrile, 323.1 K)	solubility (mole fraction) (in ethyl acetate, 283.1 K)	solubility (mole fraction) (in ethyl acetate, 293.1 K)	solubility (mole fraction) (in ethyl acetate, 303.1 K)	solubility (mole fraction) (in ethyl acetate, 313.1 K)	solubility (mole fraction) (in ethyl acetate, 323.1 K)	solubility (mole fraction) (in methanol, 283.1 K)	solubility (mole fraction) (in methanol, 293.1 K)	solubility (mole fraction) (in methanol, 303.1 K)	solubility (mole fraction) (in methanol, 313.1 K)	solubility (mole fraction) (in methanol, 323.1 K)	solubility (mole fraction) (in water, 283.1 K)	solubility (mole fraction) (in water, 293.1 K)	solubility (mole fraction) (in water, 303.1 K)	solubility (mole fraction) (in water, 313.1 K)	solubility (mole fraction) (in water, 323.1 K)	SMILES
8.28e-05	0.000105	0.000127	0.000183	0.000292	5.08e-05	7.12e-05	0.000129	0.000175	0.00025	0.00635	0.00892	0.0132	0.0209	0.0309	9.7e-06	1.45e-05	2.02e-05	3.18e-05	5.09e-05	C=CC1=C(C(=O)O)N2C(=O)[C@@H](NC(=O)/C(=N\OCC(=O)O)c3csc(N)n3)[C@H]2SC1.O.O.O
0.000187	0.000324	0.000599	0.00091	0.00137	6.77e-05	0.000104	0.000155	0.000218	0.000318	0.00194	0.00348	0.0052	0.00775	0.0114	0.00184	0.00227	0.0031	0.00414	0.00532	Cc1c(O)c(=O)ccn1C
